From patent publication US9757370B2, “Opsin-binding ligands, compositions and methods of use” (priority 2011, dated 2017)

Test system: P23H opsin
Experiment: Rhodopsin purification and regeneration: pigment formation from P23H opsin after compound treatment of P23H cells
Details: for Fold Increase Over Control (480-500 nm absorbance): P23H cells treated 48 hours, regenerated with 9-cis-retinal (20 μM), fold increase over the DMSO control

Structure (SMILES)	Fold Increase Over Control (480-500 nm absorbance) (10 μM)	Fold Increase Over Control (480-500 nm absorbance) (20 μM)	regeneration of 500 nm absorbing pigment upon treatment with retinal (FIG. 1) (P23H opsin treated with 20 μM during mutant protein production, relative to vehicle (DMSO) alone)
CC1=C(C(O)c2ccc3c(c2)CCN(C(N)=O)C3)C(C)(C)CCC1 (centres unmarked) [Compound 2, 6-(hydroxy(2,6,6-trimethylcyclohex-1-enyl)methyl)-3,4-dihydroisoquinoline-2(1H)-carboxamide]	2.5 fold		
C[C@H]1CCCC(C)(C)[C@@H]1[C@@H](O)c1ccc2c(c1)CCN(C(N)=O)C2 [Compound 5, 6-((R)-hydroxy((1R,6S)-2,2,6-trimethylcyclohexyl)methyl)-3,4-dihydroisoquinoline-2(1H)-carboxamide]	1.9 fold		
C[C@H]1CCCC(C)(C)[C@@H]1[C@H](O)c1ccc2c(c1)CCN(C(N)=O)C2 [Compound 3, 6-((S)-hydroxy((1R,6S)-2,2,6-trimethylcyclohexyl)methyl)-3,4-dihydroisoquinoline-2(1H)-carboxamide]	1.5 fold		
CC(=O)/C=C/C1=C(C)CCCC1(C)C [β-ionone, reference compound]		2.4 fold	increase in regeneration of 500 nm absorbing pigment
